# Where two headings read alike, the source gives them in different places.
# Key:
# [1] = molecular target: T1, hT2R14 (Homo sapiens (Human), UniProt Q9NYV8); experiment: hT2R14 antagonist high-throughput FLIPR assay, stable cell line with G16g44, agonist aristolochic acid; assay type: cell-based; conditions: read-out: IC50 on hT2R14 bitter receptor
# How it was run: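 Compounds were co-applied with 3 μM aristolochic acid, a dose set to reach 70-80% of maximal hT2R14 activation. Read-out was FLIPR fluorescence in a stable HEK293 line co-expressing hT2R14 and G16g44.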
# [2] = system: hT2R63; experiment: hT2R panel inhibition, transient HEK293 G16g44, agonist Caffeine 1 mM or Andrographolide 100 μM; assay type: cell-based, human; conditions: compound at 25 μM; for screening result against bitter receptor 63: receptor activated to EC80 with the corresponding agonist
# How it was run: (§1)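 Inhibition is read as loss of receptor activity caused by the test compound against an EC80 agonist challenge. Receptors from a 22-member human panel were introduced one at a time into host cells already stably expressing the chimeric G protein.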
# [3] = molecular target: hT2R16 (Homo sapiens (Human), UniProt Q9NYV7); experiment: hT2R panel inhibition, transient HEK293 G16g44, agonist Salicin 1 mM; assay type: cell-based; conditions: HEK293, compound at 25 μM
# hT2R16, sequence (Q9NYV7 whole entry): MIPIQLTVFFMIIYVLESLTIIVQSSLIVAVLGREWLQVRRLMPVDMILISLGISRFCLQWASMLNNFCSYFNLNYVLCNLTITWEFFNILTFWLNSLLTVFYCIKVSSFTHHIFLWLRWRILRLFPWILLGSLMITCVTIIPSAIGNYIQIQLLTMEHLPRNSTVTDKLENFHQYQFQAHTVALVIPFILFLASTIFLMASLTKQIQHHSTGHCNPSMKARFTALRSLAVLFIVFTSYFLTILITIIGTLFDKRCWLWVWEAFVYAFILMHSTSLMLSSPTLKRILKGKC
# How it was run: as §1
# [4] = molecular target: hT2R61 (Homo sapiens (Human), UniProt P59537); experiment: hT2R panel inhibition, transient HEK293 G16g44, agonist Aristolochic Acid 25 nM; assay type: cell-based; conditions: HEK293, compound at 25 μM
# hT2R61, sequence (P59537 whole entry): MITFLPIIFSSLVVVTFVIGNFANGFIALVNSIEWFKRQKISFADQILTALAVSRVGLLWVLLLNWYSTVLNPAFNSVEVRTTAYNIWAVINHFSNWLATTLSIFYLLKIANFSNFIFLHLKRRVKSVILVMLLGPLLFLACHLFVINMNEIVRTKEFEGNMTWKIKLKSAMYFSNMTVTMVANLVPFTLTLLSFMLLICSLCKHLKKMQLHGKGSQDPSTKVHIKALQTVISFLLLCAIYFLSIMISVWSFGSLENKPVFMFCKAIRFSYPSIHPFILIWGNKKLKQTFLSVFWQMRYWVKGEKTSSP
# How it was run: as §1
# [5] = system: hT2R44; experiment: hT2R panel inhibition, transient HEK293 G16g44, agonist Denatonium 0.5 μM; assay type: cell-based, human; conditions: compound at 25 μM; for screening result against bitter receptor 44: receptor activated to EC80 with the corresponding agonist
# How it was run: as §1
# [6] = molecular target: T1, hT2R14; experiment: hT2R panel inhibition, transient HEK293 G16g44, agonist Aristolochic Acid 2 μM; assay type: cell-based; conditions: HEK293, compound at 25 μM
# How it was run: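 Agonist challenge was at EC80, with 0.5 mM andrographolide on hT2R8 and 2 μM aristolochic acid on hT2R14. Inhibition was measured in functional assays in HEK293 cells that stably carry the promiscuous G protein G16g44 and were transiently transfected with the individual receptor.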
# [7] = molecular target: hT2R71 (Homo sapiens (Human), UniProt P59536); experiment: hT2R panel inhibition, transient HEK293 G16g44, agonist Picric Acid 10 μM; assay type: cell-based; conditions: HEK293, compound at 25 μM
# hT2R71, sequence (P59536 whole entry): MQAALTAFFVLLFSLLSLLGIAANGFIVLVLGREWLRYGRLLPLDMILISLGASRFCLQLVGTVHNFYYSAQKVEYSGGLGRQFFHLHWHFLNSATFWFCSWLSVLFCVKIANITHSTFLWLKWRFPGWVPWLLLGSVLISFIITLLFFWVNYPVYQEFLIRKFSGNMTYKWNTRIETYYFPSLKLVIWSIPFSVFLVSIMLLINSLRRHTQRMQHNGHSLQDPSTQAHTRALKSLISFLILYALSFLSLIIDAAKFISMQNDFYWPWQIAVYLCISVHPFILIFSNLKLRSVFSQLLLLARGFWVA
# How it was run: as §1
# [8] = system: hT2R55; experiment: hT2R panel inhibition, transient HEK293 G16g44, agonist Cinchonine 150 μM; assay type: cell-based, human; conditions: compound at 25 μM; for screening result against bitter receptor 55: receptor activated to EC80 with the corresponding agonist
# How it was run: as §1
# [9] = molecular target: hT2R4 (Homo sapiens (Human), UniProt Q9NYW5); experiment: hT2R panel inhibition, transient HEK293 G16g44, agonist Chloroquine pH6.5 5 mM; assay type: cell-based; conditions: HEK293, compound at 25 μM
# hT2R4, sequence (Q9NYW5 whole entry): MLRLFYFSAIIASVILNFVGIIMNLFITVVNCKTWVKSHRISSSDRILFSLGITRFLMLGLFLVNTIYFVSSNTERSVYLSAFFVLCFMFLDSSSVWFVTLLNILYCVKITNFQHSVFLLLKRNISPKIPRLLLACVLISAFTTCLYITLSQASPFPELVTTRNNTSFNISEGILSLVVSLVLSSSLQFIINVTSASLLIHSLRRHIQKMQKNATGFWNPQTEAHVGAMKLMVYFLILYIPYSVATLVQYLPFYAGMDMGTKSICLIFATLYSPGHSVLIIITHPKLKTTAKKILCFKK
# Protocol: Specifically, in order to evaluate the inhibitory selectivity of the Compound C compound, this compound was tested against 22 human T2Rs which were deorphaned by Senomyx. These receptors and the bitter ligands that activate these human T2Rs are reported in earlier patent applications which are incorporated by reference herein. These 22 human T2Rs are hT2R1, 3, 4, 5, 7, 8, 9, 10, 13, 14, 16, 44, 51, 54, 55, 61, 63, 64, 65, 67, 71 and 75. The amino acid and nucleic acid sequences of all of these T2Rs may be found in these earlier patent applications. These human T2Rs were each individually transiently transfected into HEK293 cells that stably express the promiscuous G protein G16g44 and functional assays were effected using these receptors as disclosed in these same patent applications. […] The ligands were used at EC80 concentration levels. The list of bitter ligands utilized and the tested ligand concentrations are contained in Table 5 of this example.
# Relating to the foregoing, FIG. 5 contains experimental results wherein Compound C was tested with different agonist compounds. The inhibition activity is represented by the reduction of receptor activity in the presence of Compound C. […] These 13 hT2Rs are hT2R3, 7, 10, 14, 16, 44, 51, 55, 61, 63, 64, 65, and 71.
# [10] = molecular target: hT2R64 (Homo sapiens (Human), UniProt P59538); experiment: hT2R panel inhibition, transient HEK293 G16g44, agonist Aristolochic Acid 1 μM; assay type: cell-based; conditions: HEK293, compound at 25 μM
# hT2R64, sequence (P59538 whole entry): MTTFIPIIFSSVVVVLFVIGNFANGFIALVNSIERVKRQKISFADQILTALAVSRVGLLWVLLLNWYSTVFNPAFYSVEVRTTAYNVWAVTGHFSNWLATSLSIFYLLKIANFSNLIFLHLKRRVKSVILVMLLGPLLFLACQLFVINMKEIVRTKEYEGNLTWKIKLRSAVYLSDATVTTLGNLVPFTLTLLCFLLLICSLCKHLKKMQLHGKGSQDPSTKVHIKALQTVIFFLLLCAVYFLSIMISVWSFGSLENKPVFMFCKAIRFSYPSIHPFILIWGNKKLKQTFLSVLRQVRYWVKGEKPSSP
# How it was run: as §1
# [11] = molecular target: hT2R3 (Homo sapiens (Human), UniProt Q9NYW6); experiment: hT2R panel inhibition, transient HEK293 G16g44, agonist Chloroquine pH6.5 50 μM; assay type: cell-based; conditions: HEK293, compound at 25 μM
# hT2R3, sequence (Q9NYW6 whole entry): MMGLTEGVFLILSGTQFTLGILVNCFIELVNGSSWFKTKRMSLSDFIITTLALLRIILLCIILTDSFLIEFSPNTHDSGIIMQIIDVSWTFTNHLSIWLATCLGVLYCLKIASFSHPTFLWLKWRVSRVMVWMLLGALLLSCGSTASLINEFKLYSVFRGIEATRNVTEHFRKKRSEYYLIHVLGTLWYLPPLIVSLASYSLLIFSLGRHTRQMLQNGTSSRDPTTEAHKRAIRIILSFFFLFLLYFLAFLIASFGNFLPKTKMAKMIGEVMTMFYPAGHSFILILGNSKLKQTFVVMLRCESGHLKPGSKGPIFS
# How it was run: as §1
# [12] = molecular target: hT2R10 (Homo sapiens (Human), UniProt Q9NYW0); experiment: hT2R panel inhibition, transient HEK293 G16g44, agonist Strychnine 50 μM; assay type: cell-based
# hT2R10, sequence (Q9NYW0 whole entry): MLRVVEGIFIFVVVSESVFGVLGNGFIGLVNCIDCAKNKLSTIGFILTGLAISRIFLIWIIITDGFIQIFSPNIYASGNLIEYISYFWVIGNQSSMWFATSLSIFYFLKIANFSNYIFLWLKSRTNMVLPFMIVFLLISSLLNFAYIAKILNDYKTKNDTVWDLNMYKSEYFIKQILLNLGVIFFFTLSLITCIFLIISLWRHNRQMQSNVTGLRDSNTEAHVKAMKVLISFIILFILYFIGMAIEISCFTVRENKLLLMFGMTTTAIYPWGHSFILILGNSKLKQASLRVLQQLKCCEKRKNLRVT
# [13] = molecular target: hT2R51 (Homo sapiens (Human), UniProt P59533); experiment: hT2R panel inhibition, transient HEK293 G16g44, agonist Prop 2.5 μM; assay type: cell-based; conditions: HEK293, compound at 25 μM
# hT2R51, sequence (P59533 whole entry): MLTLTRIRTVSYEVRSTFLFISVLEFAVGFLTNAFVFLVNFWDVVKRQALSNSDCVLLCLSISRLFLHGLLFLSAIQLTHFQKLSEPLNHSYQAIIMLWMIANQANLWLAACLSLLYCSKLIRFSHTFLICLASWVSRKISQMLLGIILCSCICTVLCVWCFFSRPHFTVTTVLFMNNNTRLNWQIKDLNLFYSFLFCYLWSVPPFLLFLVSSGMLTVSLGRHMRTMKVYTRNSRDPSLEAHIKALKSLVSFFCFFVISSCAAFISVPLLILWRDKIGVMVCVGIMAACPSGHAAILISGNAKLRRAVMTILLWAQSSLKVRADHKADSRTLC
# How it was run: as §1
# [14] = system: hT2R54; experiment: hT2R panel inhibition, transient HEK293 G16g44, agonist Ranitidine 5 mM; assay type: cell-based, human; conditions: compound at 25 μM
# How it was run: as §1
# [15] = molecular target: hT2R5 (Homo sapiens (Human), UniProt Q9NYW4); experiment: hT2R panel inhibition, transient HEK293 G16g44, agonist Picoline 10 mM; assay type: cell-based; conditions: HEK293, compound at 25 μM
# hT2R5, sequence (Q9NYW4 whole entry): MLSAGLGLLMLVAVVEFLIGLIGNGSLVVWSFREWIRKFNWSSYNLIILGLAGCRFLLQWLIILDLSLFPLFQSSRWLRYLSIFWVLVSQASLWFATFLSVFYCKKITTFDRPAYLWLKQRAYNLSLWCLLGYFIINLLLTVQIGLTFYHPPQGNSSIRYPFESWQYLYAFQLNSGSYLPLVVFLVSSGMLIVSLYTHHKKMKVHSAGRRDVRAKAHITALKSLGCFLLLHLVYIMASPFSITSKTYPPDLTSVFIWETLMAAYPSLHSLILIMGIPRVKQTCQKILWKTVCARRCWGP
# How it was run: as §1
# [16] = molecular target: hT2R7 (Homo sapiens (Human), UniProt Q9NYW3); experiment: hT2R panel inhibition, transient HEK293 G16g44, agonist Chloroquine pH6.5 10 mM; assay type: cell-based; conditions: HEK293, compound at 25 μM
# hT2R7, sequence (Q9NYW3 whole entry): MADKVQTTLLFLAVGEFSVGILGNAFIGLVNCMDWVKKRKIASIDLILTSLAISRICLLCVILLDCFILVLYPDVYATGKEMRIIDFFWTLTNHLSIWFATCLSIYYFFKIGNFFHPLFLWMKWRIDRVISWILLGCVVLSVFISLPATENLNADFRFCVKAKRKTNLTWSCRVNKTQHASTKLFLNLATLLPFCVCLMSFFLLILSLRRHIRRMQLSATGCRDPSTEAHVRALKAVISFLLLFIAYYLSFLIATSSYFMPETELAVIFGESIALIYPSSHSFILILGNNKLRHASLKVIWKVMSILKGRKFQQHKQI
# How it was run: as §1
# [17] = system: hT2R65; experiment: hT2R panel inhibition, transient HEK293 G16g44, agonist Oleuropein 1 mM; assay type: cell-based, human; conditions: compound at 25 μM
# How it was run: as §1
# [18] = system: hT2R67; experiment: hT2R panel inhibition, transient HEK293 G16g44, agonist Andrographolide 5 μM; assay type: cell-based, human; conditions: compound at 25 μM; receptor activated to EC80 with agonist
# How it was run: as §1
# [19] = receptor activated to EC80 with the corresponding agonist, read-out: screening result against bitter receptor 16
# [20] = receptor activated to EC80 with the corresponding agonist, read-out: screening result against bitter receptor 61
# [21] = receptor activated to EC80 with the corresponding agonist, read-out: screening result against bitter receptor 14
# [22] = receptor activated to EC80 with the corresponding agonist, read-out: screening result against bitter receptor 71
# [23] = receptor activated to EC80 with the corresponding agonist, class symbols, read-out: screening result against bitter receptor 4
# [24] = receptor activated to EC80 with the corresponding agonist, read-out: screening result against bitter receptor 64
# [25] = receptor activated to EC80 with the corresponding agonist, read-out: screening result against bitter receptor 3
# [26] = receptor activated to EC80 with the corresponding agonist
# [27] = receptor activated to EC80 with the corresponding agonist, read-out: screening result against bitter receptor 5
# [28] = receptor activated to EC80 with the corresponding agonist, read-out: screening result against bitter receptor 7
# [29] = receptor activated to EC80 with agonist
# T1 sequence (Q9NYV8 whole entry): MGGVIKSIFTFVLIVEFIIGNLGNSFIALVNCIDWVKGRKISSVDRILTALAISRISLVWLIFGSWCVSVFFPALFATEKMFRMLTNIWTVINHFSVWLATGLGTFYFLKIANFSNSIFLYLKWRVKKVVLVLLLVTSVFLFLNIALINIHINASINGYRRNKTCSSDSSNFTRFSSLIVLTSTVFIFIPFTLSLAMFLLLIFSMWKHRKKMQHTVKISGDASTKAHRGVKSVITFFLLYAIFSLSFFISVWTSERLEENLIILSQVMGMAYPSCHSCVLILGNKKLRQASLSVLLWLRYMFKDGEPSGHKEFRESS
Compound,IC50 [1],screening result against bitter receptor 63 [2],"inhibition at 25 µM [3, 19]","inhibition at 25 µM [4, 20]",screening result against bitter receptor 44 [5],"inhibition at 25 µM [6, 21]","inhibition at 25 µM [7, 22]",screening result against bitter receptor 55 [8],"inhibition at 25 µM [9, 23]","inhibition at 25 µM [10, 24]","inhibition at 25 µM [11, 25]","inhibition at 25 µM [16, 28]",further results
"CC(=O)Nc1ccc(S(=O)(=O)N(Cc2ccccc2)CC2CCC(C(=O)O)CC2)cc1 (stereo not drawn) [Example 5-21, 4-((4-acetamido-N-benzylphenylsulfonamido)methyl)-cyclohexanecarboxylic acid]",1.62 µM,+++ (60% to 80% inhibition = +++),20 to 40%,60 to 80%,++ (40% to 60% inhibition = ++),> 80%,20 to 40%,+ (20% to 40% inhibition = +),20 to 40%,20 to 40%,20 to 40%,,
"COc1ccc(CN(Cc2ccc(OC)c(OC)c2)S(=O)(=O)c2ccc(C(=O)O)cc2)cc1 [Example 5-40, 4-(N-(3,4-dimethoxybenzyl)-N-(4-methoxybenzyl)sulfamoyl)benzoic acid]",1.47 µM,++++ (80% or greater inhibition = ++++),20 to 40%,> 80%,+++ (60% to 80% inhibition = +++),> 80%,40 to 60%,++++ (80% or greater inhibition = ++++),20 to 40%,60 to 80%,20 to 40%,,"inhibition at 25 µM ([12]; HEK293, read-out: screening result against bitter receptor 10, compound at 25 μM, receptor activated to EC80 with the corresponding agonist): 40 to 60%; inhibition at 25 µM ([13]; receptor activated to EC80 with the corresponding agonist, read-out: screening result against bitter receptor 51): 20 to 40%; screening result against bitter receptor 54 [14, 26]: + (20% to 40% inhibition = +); inhibition at 25 µM [15, 27]: 20 to 40%"
"O=C(O)C1CCC(CN(Cc2ccc(F)cc2)S(=O)(=O)Cc2ccccc2)CC1 (stereo not drawn) [Example 5-24, 4-((N-(4-fluorobenzyl)-1-phenylmethylsulfonamido)methyl)-cyclohexanecarboxylic acid]",9.57 µM,+ (20% to 40% inhibition = +),,> 80%,+ (20% to 40% inhibition = +),,20 to 40%,++ (40% to 60% inhibition = ++),20 to 40%,60 to 80%,,20 to 40%,
"Cc1ccc(S(=O)(=O)N(Cc2ccc(F)cc2)Cc2ccc(C(=O)O)cc2)cc1 [Example 5-37, 4-((N-(4-fluorobenzyl)-4-methylphenylsulfonamido)methyl)benzoic acid]",0.054 µM,+ (20% to 40% inhibition = +),20 to 40%,,,> 80%,,++++ (80% or greater inhibition = ++++),60 to 80%,60 to 80%,20 to 40%,20 to 40%,"inhibition at 25 µM [15, 27]: 20 to 40%; screening result against bitter receptor 65 [17, 26]: ++ (40% to 60% inhibition = ++)"
"COc1ccc(CN(Cc2ccc(NC(C)=O)cc2)S(=O)(=O)c2ccc(C(=O)O)cc2)cc1 [Example 5-26, 4-(N-(4-acetamidobenzyl)-N-(4-methoxybenzyl)sulfamoyl)benzoic acid]",,+++ (60% to 80% inhibition = +++),,20 to 40%,+ (20% to 40% inhibition = +),,20 to 40%,,40 to 60%,60 to 80%,,20 to 40%,
"COc1cccc(CN(Cc2ccc(C(=O)O)cc2)S(=O)(=O)c2ccc(O)cc2)c1 [Example 5-43, 4-((4-hydroxy-N-(3-methoxybenzyl)phenylsulfonamido)methyl)-benzoic acid]",0.188 µM,++++ (80% or greater inhibition = ++++),20 to 40%,> 80%,+ (20% to 40% inhibition = +),> 80%,40 to 60%,+ (20% to 40% inhibition = +),20 to 40%,60 to 80%,20 to 40%,,
"O=C(O)C1CCC(CN(Cc2ccc(F)cc2)S(=O)(=O)c2ccccn2)CC1 (stereo not drawn) [Example 5-53, 4-((N-(4-fluorobenzyl)pyridine-2-sulfonamido)methyl)cyclohexanecarboxylic acid]",,++ (40% to 60% inhibition = ++),,,,40 to 60%,20 to 40%,,20 to 40%,40 to 60%,,20 to 40%,
"CCOc1ccc(CN(Cc2ccccc2)S(=O)(=O)c2ccc(C(=O)O)cc2)cc1 [Example 5-108, 4-(N-benzyl-N-(4-ethoxybenzyl)sulfamoyl)benzoic acid]",,,,,,,,,,,,,"inhibition of bitter receptor 63 [2, 29]: +++ (60% to 80% inhibition = +++); inhibition at 25 µM ([12]; HEK293, read-out: inhibition of bitter receptor 10, compound at 25 μM, receptor activated to EC80 with agonist): 40 to 60%; inhibition at 25 µM ([3]; receptor activated to EC80 with agonist, read-out: inhibition of bitter receptor 16): 20 to 40%; inhibition at 25 µM ([13]; receptor activated to EC80 with agonist, read-out: inhibition of bitter receptor 51): 40 to 60%; inhibition of bitter receptor 54 [14, 29]: + (20% to 40% inhibition = +); inhibition of bitter receptor 67 [18]: + (20% to 40% inhibition = +); inhibition at 25 µM ([4]; receptor activated to EC80 with agonist, read-out: inhibition of bitter receptor 61): > 80%; inhibition of bitter receptor 44 [5, 29]: +++ (60% to 80% inhibition = +++); inhibition at 25 µM ([6]; receptor activated to EC80 with agonist, read-out: inhibition of bitter receptor 14): > 80%; inhibition at 25 µM ([7]; receptor activated to EC80 with agonist, read-out: inhibition of bitter receptor 71): 60 to 80%; inhibition of bitter receptor 55 [8, 29]: ++++ (80% or greater inhibition = ++++); inhibition at 25 µM ([16]; receptor activated to EC80 with agonist, read-out: inhibition of bitter receptor 7): 20 to 40%; inhibition at 25 µM ([9]; receptor activated to EC80 with agonist, read-out: inhibition of bitter receptor 4): 60 to 80%; inhibition at 25 µM ([10]; receptor activated to EC80 with agonist, read-out: inhibition of bitter receptor 64): > 80%; inhibition at 25 µM ([15]; receptor activated to EC80 with agonist, read-out: inhibition of bitter receptor 5): 20 to 40%; inhibition of bitter receptor 65 [17, 29]: ++ (40% to 60% inhibition = ++); inhibition at 25 µM ([11]; receptor activated to EC80 with agonist, read-out: inhibition of bitter receptor 3): 40 to 60%"
